Assays:
Acyl-CoA desaturase 1 = biological target: T1, Acyl-CoA desaturase 1 (Mus musculus, UniProt P13516); experiment: Inhibition of SCD1 in mouse microsomes assessed as conversion of [14C]stearate to [14C]oleate after 60 mins; parameters: species or system Microsome
T1 sequence (P13516 whole entry): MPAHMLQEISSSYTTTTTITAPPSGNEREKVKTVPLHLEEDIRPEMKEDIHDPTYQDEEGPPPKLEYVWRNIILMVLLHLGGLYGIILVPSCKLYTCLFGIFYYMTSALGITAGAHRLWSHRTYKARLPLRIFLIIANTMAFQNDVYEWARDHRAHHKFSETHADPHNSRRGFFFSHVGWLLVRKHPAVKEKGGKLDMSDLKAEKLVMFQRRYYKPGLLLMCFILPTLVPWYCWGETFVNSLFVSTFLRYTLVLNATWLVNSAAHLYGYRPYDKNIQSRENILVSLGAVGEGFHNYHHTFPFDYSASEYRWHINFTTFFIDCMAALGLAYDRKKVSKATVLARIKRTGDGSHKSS

Stearoyl-CoA desaturase [1] = biological target: T2, Stearoyl-CoA desaturase (Homo sapiens, UniProt O00767); experiment: Inhibition of SCD1 in human microsomes assessed as conversion of [14C]stearate to [14C]oleate after 60 mins; parameters: species or system Microsome
T2 sequence (O00767 whole entry): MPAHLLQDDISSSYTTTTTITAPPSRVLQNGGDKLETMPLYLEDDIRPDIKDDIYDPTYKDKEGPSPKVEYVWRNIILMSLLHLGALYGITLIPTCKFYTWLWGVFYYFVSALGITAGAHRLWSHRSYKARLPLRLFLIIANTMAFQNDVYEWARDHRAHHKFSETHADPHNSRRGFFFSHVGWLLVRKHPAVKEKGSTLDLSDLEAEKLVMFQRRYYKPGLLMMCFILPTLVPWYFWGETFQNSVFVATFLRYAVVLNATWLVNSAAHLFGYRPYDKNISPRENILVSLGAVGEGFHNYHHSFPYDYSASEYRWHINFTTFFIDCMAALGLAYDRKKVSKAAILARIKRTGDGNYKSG

[2] = Cmax in C57BL/6J mouse at 20 mg/kg, po measured up to 8 hrs; assay type: ADME, organism-based; parameters: dose 20 mg/kg, route oral; conditions: in vivo
[3] = Half life in C57BL/6J mouse at 20 mg/kg, po measured up to 8 hrs; assay type: ADME, organism-based; parameters: time < 8 hr, dose 20 mg/kg, route oral; conditions: in vivo
[4] = Tmax in C57BL/6J mouse at 20 mg/kg, po measured up to 8 hrs; assay type: ADME, organism-based; parameters: dose 20 mg/kg, route oral; conditions: in vivo
[5] = AUC (0 to 8 hrs) in C57BL/6J mouse at 20 mg/kg, po measured up to 8 hrs; assay type: ADME, organism-based; parameters: time < 8 hr, dose 20 mg/kg, route oral; conditions: plasma
[6] = Oral bioavailability in C57BL/6J mouse at 20 mg/kg measured up to 8 hrs; assay type: ADME, organism-based; conditions: in vivo
Stearoyl-CoA desaturase [7] = biological target: T2, Stearoyl-CoA desaturase; experiment: Inhibition of human SCD1 expressed in HEK293A cells assessed as conversion of [14C]stearate to [14C]oleate; assay type: cell-based, HEK293-A
Mus musculus [8] = experiment: Inhibition of SCD1 in db/db mouse liver assessed as conversion of [14C]stearate to [14C]oleate administered through oral gavage; assay type: functional; conditions: read-out: ID50 (the source's name)
[9] = biological target: T3, Acyl-CoA 6-desaturase (Homo sapiens) (UniProt O95864); experiment: Inhibition of delta-6 desaturase in human microsomes assessed as conversion of [14C]linolenic acid to [14C]stearidonic acid at 10 uM; conditions: Microsome
T3 sequence (whole entry): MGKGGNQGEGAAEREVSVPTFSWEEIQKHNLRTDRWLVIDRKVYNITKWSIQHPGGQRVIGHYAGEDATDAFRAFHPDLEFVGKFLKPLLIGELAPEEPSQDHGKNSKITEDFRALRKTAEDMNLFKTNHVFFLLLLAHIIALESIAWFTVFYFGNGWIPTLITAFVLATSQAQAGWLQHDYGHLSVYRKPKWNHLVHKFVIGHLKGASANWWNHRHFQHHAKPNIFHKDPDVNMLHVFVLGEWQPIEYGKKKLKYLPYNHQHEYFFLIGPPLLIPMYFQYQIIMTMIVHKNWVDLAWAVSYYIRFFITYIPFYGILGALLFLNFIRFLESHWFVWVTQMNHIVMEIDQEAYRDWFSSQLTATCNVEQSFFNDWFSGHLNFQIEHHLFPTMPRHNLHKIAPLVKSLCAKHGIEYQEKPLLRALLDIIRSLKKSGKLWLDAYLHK

[10] = Half life in C57BL/6J mouse at 5 mg/kg; assay type: ADME, organism-based; parameters: dose 5 mg/kg; conditions: in vivo
[11] = Volume of distribution in C57BL/6J mouse at 5 mg/kg, iv measured up to 8 hrs; assay type: ADME, organism-based; parameters: dose 5 mg/kg, route intravenous; conditions: in vivo
[12] = AUC (0 to 8 hrs) in C57BL/6J mouse at 5 mg/kg, iv measured up to 8 hrs; assay type: ADME, organism-based; parameters: time < 8 hr, dose 5 mg/kg, route intravenous; conditions: plasma
Mus musculus [13] = experiment: AUC in C57BL/6J mouse at 5 mg/kg, iv measured up to 8 hrs; conditions: in vivo
[14] = Clearance in C57BL/6J mouse at 5 mg/kg, iv measured up to 8 hrs; assay type: ADME, organism-based; parameters: dose 5 mg/kg, route intravenous; conditions: in vivo

| Structure (SMILES) | IC50 (Acyl-CoA desaturase 1) [nM] | IC50 (Stearoyl-CoA desaturase [1]) [nM] | IC50 (Stearoyl-CoA desaturase [7]) [nM] | other results |
| --- | --- | --- | --- | --- |
| COc1ccc(C(=O)Nc2ncc(Cc3cccc(OC(F)(F)F)c3)s2)cc1OCCO | 3 | 4 | 59 | Cmax [2]: 1200 ng/mL; AUC at 8 h [3]: 4900 ng·h/mL; half-life [4]: 1.5 h; Tmax [5]: 1.3 h; bioavailability [6]: 8%; ED50 (Mus musculus [8]): 8 mg/kg |
| COc1ccc(C(=O)Nc2ncc(Cc3cccc(C(F)(F)F)c3)s2)cc1OCCO |  |  |  | inhibition [9]: 15%; half-life [10]: 0.9 h; Vd [11]: 0.42 L/kg; AUC(0-t) at 8 h [12]: 17000 ng·h/mL; ED50 (Mus musculus [8]): 2 mg/kg; AUC (Mus musculus [13]): 4700 ng·h/mL |
| COc1ccc(C(=O)Nc2ncc(Cc3ccc(F)c(Cl)c3)s2)cc1OCCO | 1 | 2 | 17 | Cmax [2]: 3600 ng/mL; AUC at 8 h [3]: 14000 ng·h/mL; half-life [4]: 2.1 h; Tmax [5]: 1 h; bioavailability [6]: 38%; ED50 (Mus musculus [8]): 2 mg/kg |
| COc1ccc(C(=O)Nc2ncc(Cc3cc(F)cc(F)c3)s2)cc1OCCO | 0.1 | 2.9 | 116 |  |
| COc1cc(C(=O)Nc2ncc(Cc3cccc(C(F)(F)F)c3)s2)ccc1OCC(=O)O |  | 4380 |  | inhibition [9]: < 5% |
| COc1cc(C(=O)Nc2ncc(Cc3cccc(C(F)(F)F)c3)s2)ccc1OCCO | 3 | 10 |  | inhibition [9]: 16%; half-life [10]: 1.4 h; clearance [14]: 3.4 mL/min/kg; Vd [11]: 0.42 L/kg; AUC(0-t) at 8 h [12]: 24000 ng·h/mL; Cmax [2]: 70 ng/mL; half-life [3]: 1.3 h; Tmax [4]: 0.5 h; AUC(0-t) at 8 h [5]: 150 ng·h/mL; bioavailability [6]: 0.2% |
| COc1ccc(C(=O)Nc2ncc(Cc3cccc(C(F)(F)F)c3)s2)cc1OCCCO |  | > 10000 |  |  |
| COc1ccc(C(=O)Nc2ncc(Cc3ccc(F)c(F)c3)s2)cc1OCCO | 2 | 9 | 34 |  |
| COc1ccc(C(=O)Nc2ncc(Cc3ccc(C)c(F)c3)s2)cc1OCCO | 22 | 82 | 639 |  |
| COc1ccc(C(=O)Nc2ncc(Cc3cccc(Cl)c3)s2)cc1OCCO | 1 | 4 | 9 | Cmax [2]: 1800 ng/mL; AUC at 8 h [3]: 10000 ng·h/mL; half-life [4]: 5.4 h; Tmax [5]: 2 h; bioavailability [6]: 12%; ED50 (Mus musculus [8]): 1 mg/kg |
| COc1ccc(C(=O)Nc2ncc(Cc3cccc(F)c3)s2)cc1OCCO | 2 | 11 | 34 |  |
| COc1ccc(C(=O)Nc2ncc(Cc3cc(Cl)cc(Cl)c3)s2)cc1OCCO | 0.7 | 1 | 13 |  |
| Cc1ccc(C(=O)Nc2ncc(Cc3cccc(C(F)(F)F)c3)s2)cc1C | 8220 |  |  |  |
| COc1ccc(C(=O)Nc2ncc(Cc3cccc(C(F)(F)F)c3)s2)cc1 |  | 1220 |  |  |
| COc1ccc(/C=C/C(=O)Nc2ncc(Cc3cccc(C(F)(F)F)c3)s2)cc1 | 2 | 3 |  | inhibition [9]: 21%; half-life [10]: 0.4 h; clearance [14]: 32 mL/min/kg; Vd [11]: 0.3 L/kg; AUC(0-t) at 8 h [12]: 2700 ng·h/mL |
| COc1ccc(C(=O)Nc2ncc(Cc3cccc(C(C)(C)C)c3)s2)cc1OCCO | 1310 |  |  |  |
| COc1ccc(C(=O)Nc2ncc(Cc3cccc(C(F)(F)F)c3)s2)cc1OCC(O)CO (stereo not drawn) |  | > 10000 |  |  |
| COc1ccc(C(=O)Nc2ncc(Cc3cccc(C(F)(F)F)c3)s2)cc1OCC(C)O (stereo not drawn) | 2170 | 2160 |  |  |
| COc1cccc(C(=O)Nc2ncc(Cc3cccc(C(F)(F)F)c3)s2)c1 | 193 | 915 |  | inhibition [9]: 53% |
| COc1ccc(C(=O)Nc2ncc(Cc3cc(C(F)(F)F)cc(C(F)(F)F)c3)s2)cc1OCCO |  | 0.2 | 26 |  |
| O=C(Nc1ncc(Cc2cccc(C(F)(F)F)c2)s1)c1ccc2ccccc2c1 | > 10000 |  |  |  |
| COc1cc(C(=O)Nc2ncc(Cc3cccc(C(F)(F)F)c3)s2)ccc1OCCN1CCOCC1 | 528 | 1400 |  | inhibition [9]: < 5% |
| COc1ccc(C(=O)Nc2ncc(Cc3cc(Cl)ccc3Cl)s2)cc1OCCO | 9 | 125 | 429 |  |
| COc1ccc(C(=O)Nc2ncc(Cc3cccc(C(F)(F)F)c3)s2)cc1OCC(=O)O | > 10000 |  |  |  |
| COc1ccc(C(=O)Nc2ncc(Cc3ccc(F)c(C(F)(F)F)c3)s2)cc1OCCO | 0.2 | 0.6 | 8 | Cmax [2]: 550 ng/mL; AUC at 8 h [3]: 2000 ng·h/mL; half-life [4]: 1.3 h; Tmax [5]: 1.3 h; bioavailability [6]: 3%; ED50 (Mus musculus [8]): 5 mg/kg |
| COc1ccc(C(=O)Nc2ncc(Cc3ccc(Cl)c(Cl)c3)s2)cc1OCCO | 0.8 | 1 | 13 |  |
| COc1ccc(C(=O)Nc2ncc(Cc3cccc(C(F)(F)F)c3)s2)cc1OCC(C)(C)O | > 10000 |  |  |  |
| COc1ccc(C(=O)Nc2ncc(Cc3cccc(C(F)(F)F)c3)s2)cc1OC | 76 | 145 |  | inhibition [9]: < 5% |
| COc1ccc2cc(C(=O)Nc3ncc(Cc4cccc(C(F)(F)F)c4)s3)ccc2c1 | 5 | 9 |  | inhibition [9]: < 5% |

— ChEMBL document CHEMBL1153048, “Novel and potent inhibitors of stearoyl-CoA desaturase-1. Part I: Discovery of 3-(2-hydroxyethoxy)-4-methoxy-N-[5-(3-trifluoromethylbenzyl)thiazol-2-yl]benzamide” (Bioorg Med Chem Lett, 2009)
